In paper PMC9578396, “Intrinsic Antibacterial Activity of Xeruborbactam In Vitro: Assessing Spectrum and Mode of Action” (Antimicrobial Agents and Chemotherapy, 2022):
Read-outs that look alike come from different tables or passages of the source.

What was measured:
[1] = tested on: Klebsiella pneumoniae; experiment: microbe, parasite or virus in culture; format: cell-based
In short: (§1)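 MICs by CLSI broth microdilution in in-house panels. Strains tested were engineered strains carrying porin and efflux mutation combinations, KPC-producing clinical isolates and derivatives cured of KPC plasmids, and KPC-producing clinical isolates enriched for porin mutations.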

[2] = tested on: K. pneumoniae strain KPM1026a; experiment: Fluorescence microscopy, cellular morphology; format: cell-based, Klebsiella pneumoniae; conditions: treated at 1× and 2× MIC, 1 to 2 h, 30°C
Description: (§2) Single colonies of K. pneumoniae strain KPM1026a, A. baumannii strain ATCC 17978, and P. aeruginosa strain PAM1154 were picked from LB agar plates, inoculated in cation-adjusted Mueller-Hinton broth (CA-MHB), and incubated overnight at 30°C with rolling. Overnight cultures were diluted into fresh CA-MHB and incubated at 30°C, with rolling, until they reached an OD600 of ≈0.12 to 0.15 (equivalent to ~2 × 10^8 CFU/mL). Samples were then treated with compounds and incubated at 30°C, with rolling. After 1 or 2 h of treatment, cells were collected and stained with a dye mix containing FM4-64 (1 μg/mL), DAPI (4′,6-diamidino-2-phenylindole) (2 μg/mL), and SYTOX green (0.5 μM) (Molecular Probes, Invitrogen, or Thermo Fisher Scientific). Cells were transferred onto an agarose pad containing 1.2% agarose and 20% LB medium for microscopy. Microscopy was performed as previously described ([34]).

[3] = tested on: Pseudomonas aeruginosa; experiment: Broth microdilution MIC (CLSI), Pseudomonas aeruginosa; format: cell-based; conditions: Pseudomonas aeruginosa, strain PAM1154 (Fig. 6); read-out: MIC
In short: as §1

[4] = tested on: Acinetobacter baumannii; experiment: Broth microdilution MIC (CLSI), Acinetobacter baumannii; format: cell-based; conditions: Acinetobacter baumannii, read-out: MIC
In short: as §1

[5] = tested on: A. baumannii strain ATCC 17978; experiment: Fluorescence microscopy, cellular morphology; format: cell-based, Acinetobacter baumannii; conditions: xeruborbactam, meropenem 1× and 2× MIC; aztreonam 2× MIC; amdinocillin 2 μg/mL
Description: as §2

What does the source list for `CC1(C)S[C@@H]2[C@H](/N=C/N3CCCCCC3)C(=O)N2[C@H]1C(=O)O` [Mecillinam]?
MIC ([1]; KPM1026a (no beta-lactamase), xeruborbactam 0 µg/ml): 0.25 µg/mL; MIC ([1]; KPM1026a, xeruborbactam 2 µg/ml): 0.25 µg/mL; MIC ([1]; KPM1026a, xeruborbactam 4 µg/ml): 0.125 µg/mL; MIC ([1]; KPM1026a, xeruborbactam 8 µg/ml): 0.06 µg/mL; MIC ([1]; Klebsiella pneumoniae, KPM1026a, alone, read-out: MIC): 0.25 µg/mL; MIC ([1]; Klebsiella pneumoniae, KPM1026a, parent, read-out: MIC): 0.25 µg/mL; MIC ([1]; Klebsiella pneumoniae, KPM3532 (TolQ::M189K), alone): > 64 µg/mL; MIC ([1]; Klebsiella pneumoniae, KPM3532, TolQ::M189K): > 64 µg/mL; MIC ([1]; Klebsiella pneumoniae, KPM3534 (TolQ::S31F), alone): > 64 µg/mL; MIC ([1]; Klebsiella pneumoniae, KPM3534, TolQ::S31F): > 64 µg/mL; MIC ([1]; Klebsiella pneumoniae, KPM4235, TolQ::IP(183–1844)PR): > 64 µg/mL; MIC ([1]; Klebsiella pneumoniae, KPM4236, TolQ::TAA at aa 103): > 64 µg/mL; MIC ([1]; Klebsiella pneumoniae, KPM4238, TolQ::S25F): > 64 µg/mL; MIC ([1]; Klebsiella pneumoniae, KPM4239, TolQ::S28F): > 64 µg/mL; MIC ([1]; Klebsiella pneumoniae, KPM4240, TolQ::S25Y): > 64 µg/mL; MIC ([1]; Klebsiella pneumoniae, strain KPM1026a measured at 30°C (Fig. 6), read-out: MIC): 128 µg/mL; cellular morphology [2]: cell rounding; MIC [3]: 128 µg/mL; MIC ([4]; ATCC17978, strain ATCC 17978 (Fig. 6)): 128 µg/mL; MIC ([4]; ATCC17978, strain ATCC 17978): > 256 µg/mL; cellular morphology [5]: bacterial cell rounding but not swelling
